Assay results reported in patent US4258058A, “Phenoxyalkylcarboxylic acid compounds and thrombocyte-aggregation inhibition” (Boehringer Mannheim GmbH, priority 1978, dated 1981).

These molecules were tested on thrombocyte aggregation (assay: Born test: inhibition of the second phase of adrenalin induced thrombocyte aggregation in platelet-rich plasma (PRP)). Conditions: Homo sapiens, at 5 × 10^-5 m, induced by 5×10^-6 m adrenalin, read-out: Percent Inhibition Of Thrombocyte Aggregation.
Assay type: cell-based, human
From the text: In a series of determinations utilizing the Born test, venous blood from metabolically healthy persons was mixed with sodium citrate in a ratio of 9:1 and the erythrocytes precipitated by centrifuging at 150 g. The filtrate is enriched in thrombocytes and this filtrate is designated as platelet-rich plasma (PRP). One aliquot of the PRP is placed in the cuvette of an aggregometer (Universal Aggregometer, manufactured by Braun Melsungen, West Germany) and stirred with a magnetic stirrer. The substance to be tested is added in the form of an aqueous solution at a pH of about 7. Changes in the light transmission of the suspension are continuously recorded. After spontaneous aggregation ceases, further aggregation is induced by the addition of 5×10^-6 m adrenalin, forming larger thrombocyte aggregates and increasing the light transmission through the suspension.
The adrenalin induced aggregation takes place in two phases, i.e., the light transmission initially increases, then stagnates temporarily, and then increases again. Only the second phase of the aggregation can be influenced by aggregation inhibitors. For an evaluation of the results there is first established, in a control experiment using no test compound, the angle of the second aggregation phase against the horizontal for adrenalin induced aggregation and this is designated as 0% inhibition. Utilizing the same PRP, the test compound is added and aggregation is induced with adrenalin, and the course of aggregation continuously recorded. The angle of the second aggregation phase against the horizontal is again determined and the relationship of this angle against the angle determined in the control experiment yields the percent inhibition of the second phase of the thrombocyte aggregation.
The standard material "Colfarit" (acetylsalicylic acid) yields 100% inhibition at a concentration of 10^-4 m and 0% inhibition at a concentration of 5×10^-5 m. At the latter concentration the inventive compounds yielded the following results: […]

Compound	inhibition at 50 µM [%]
CC(C)(Oc1ccc(CCNS(=O)(=O)c2ccccc2)cc1)C(=O)O [2-{4-[2-(Benzenesulphonylamino)-ethyl]-phenoxy}-2-methylpropionic acid]	20
CC(C)(Oc1ccc(CCNS(=O)(=O)c2ccc(Cl)cc2)cc1)C(=O)O [2-{4-[2-(4-Chlorobenzenesulphonylamino)-ethyl]-phenoxy}-2-methylpropionic acid]	100
O=C(O)COc1ccc(CCNS(=O)(=O)c2ccc(F)cc2)cc1 [4-[2-(4-Fluorobenzenesulphonylamino)-ethyl]-phenoxyacetic acid]	100
O=C(O)COc1ccc(CCNS(=O)(=O)c2ccccc2)cc1 [4-[2-(Benzenesulphonylamino)-ethyl]-phenoxyacetic acid]	100
CCOC(=O)CCNC(=O)COc1ccc(CCNS(=O)(=O)c2ccccc2)cc1 [4-[2-(Benzenesulphonylamino)-ethyl]-phenoxyacetic acid 2-ethoxycarbonylethylamide]	100
CC(=O)Oc1ccccc1C(=O)O [Colfarit, acetylsalicylic acid, reference compound]	0
O=C(O)COc1ccc(CCNS(=O)(=O)c2cccc3ccccc23)cc1 [4-[2-(1-naphthalenesulphonylamino)-ethyl]-phenoxyacetic acid]	100
CC(CO)NC(=O)COc1ccc(CCNS(=O)(=O)c2ccccc2)cc1 (stereo not drawn) [4-[2-(Benzenesulphonylamino)-ethyl]-phenoxyacetic acid 1-hydroxy-2-propylamide]	10
Cc1ccc(S(=O)(=O)NCCc2ccc(OCC(=O)O)cc2)cc1 [4-[2-(p-toluenesulphonylamino)-ethyl]-phenoxyacetic acid]	100
O=C(O)COc1ccc(CCNS(=O)(=O)c2ccc(Cl)cc2)cc1 [4-[2-(4-chlorobenzenesulphonylamino)-ethyl]-phenoxyacetic acid]	100
O=C(O)COc1ccc(CCCNS(=O)(=O)c2ccccc2)cc1 [4-[3-(Benzenesulphonylamino)-propyl]-phenoxyacetic acid]	100
CC(C)OC(=O)COc1ccc(CCNS(=O)(=O)c2ccccc2)cc1 [Isopropyl 4-[2-(benzenesulphonylamino)-ethyl]-phenoxyacetate]	100
O=C(O)COc1ccc(CNS(=O)(=O)c2ccccc2)cc1 [4-(Benzenesulphonylaminomethyl)-phenoxyacetic acid]	20
CC(=O)c1ccc(S(=O)(=O)NCCc2ccc(OCC(=O)O)cc2)cc1 [4-[2-(4-acetylbenzenesulphonylamino)-ethyl]-phenoxyacetic acid]	100

Same assay, conditions: at 10^-4 m, induced by adrenalin

Compound	inhibition of thrombocyte aggregation [%]
CC(=O)Oc1ccccc1C(=O)O [Colfarit, acetylsalicylic acid, reference compound]	100
